Measured values taken from PubChem BioAssay AID248 (DTP/NCI, 2004).
Several values for one entry are separate records, joined by “and”; a condition that tells them apart may be missing. Identical values can stand only once. Toxic doses and inconclusive results are not listed.

System: L1210 leukemia ip in BDF1 mice, survival T/C
Assay: NCI In Vivo Anticancer Drug Screen. Data for tumor model L1210 Leukemia (intraperitoneal) in B6D2F1 (BDF1) mice
Conditions: endpoint: mean survival time, higher = longer survival
In short: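 Read-out is survival time, reported as the treated-group measurement over the vehicle-control measurement.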

COC12C(COC(N)=O)C3=C(C(=O)C(C)=C(N)C3=O)N1CC1C2N1C (stereo not given)
T/C (dose: 0.37 mg/kg/injection, schedule: Q01DX009 (ip), vehicle: saline): 106 % of control
T/C (dose: 0.7 mg/kg/injection, schedule: Q## X040 (ip), vehicle: saline): 106 % of control
T/C (dose: 0.75 mg/kg/injection, schedule: Q01DX009 (ip), vehicle: saline): 117 % of control
T/C (dose: 1.25 mg/kg/injection, schedule: Q01DX Z (ip), vehicle: carboxymethylcellulose (CMC)): 93 % of control
T/C (dose: 1.4 mg/kg/injection, schedule: Q## X040 (ip), vehicle: saline): 118 % of control
T/C (dose: 1.5 mg/kg/injection, schedule: Q01DX009 (ip), vehicle: saline): 121 % of control
T/C (dose: 1.5 mg/kg/injection, schedule: Q## X003 (ip), vehicle: saline): 117 % of control
T/C (dose: 2.0 mg/kg/injection, schedule: Q01DX009 (ip), vehicle: Klucel (hydroxypropylcellulose) (HPC)): 120 % of control
T/C (dose: 2.0 mg/kg/injection, schedule: Q01DX009 (ip), vehicle: saline): 165 % of control
T/C (dose: 2.0 mg/kg/injection, schedule: Q01DX009 (sc), vehicle: saline): 109 % of control
T/C (dose: 2.0 mg/kg/injection, schedule: Q01DX015 (ip), vehicle: saline): 115 % of control and 116 % of control and 121 % of control
T/C (dose: 2.2 mg/kg/injection, schedule: Q01DX007 (ip), vehicle: carboxymethylcellulose (CMC)): 123 % of control
T/C (dose: 2.5 mg/kg/injection, schedule: Q01DX Z (ip), vehicle: carboxymethylcellulose (CMC)): 97 % of control
T/C (dose: 3.0 mg/kg/injection, schedule: Q01DX001 (ip), vehicle: saline): 116 % of control
T/C (dose: 3.0 mg/kg/injection, schedule: Q## X003 (ip), vehicle: saline): 112 % of control
T/C (dose: 3.0 mg/kg/injection, schedule: Q## X008 (ip), vehicle: saline): 116 % of control
T/C (dose: 3.0 mg/kg/injection, schedule: Q## X040 (ip), vehicle: saline): 119 % of control
T/C (dose: 3.35 mg/kg/injection, schedule: Q01DX015 (ip), vehicle: carboxymethylcellulose (CMC)): 121 % of control
T/C (dose: 3.5 mg/kg/injection, schedule: Q01DX015 (ip), vehicle: saline): 123 % of control
T/C (dose: 4.0 mg/kg/injection, schedule: Q## X024 (ip), vehicle: saline): 103 % of control
T/C (dose: 4.4 mg/kg/injection, schedule: Q## X004 (ip), vehicle: saline): 114 % of control
T/C (dose: 5.0 mg/kg/injection, schedule: Q01DX007 (ip), vehicle: carboxymethylcellulose (CMC)): 156 % of control
T/C (dose: 5.0 mg/kg/injection, schedule: Q01DX009 (oral), vehicle: saline): 122 % of control
T/C (dose: 5.0 mg/kg/injection, schedule: Q01DX015 (ip), vehicle: saline): 122 % of control
T/C (dose: 5.0 mg/kg/injection, schedule: Q01DX Z (ip), vehicle: carboxymethylcellulose (CMC)): 123 % of control
T/C (dose: 6.0 mg/kg/injection, schedule: Q01DX009 (ip), vehicle: saline): 151 % of control and 164 % of control
T/C (dose: 6.0 mg/kg/injection, schedule: Q01DX015 (ip), vehicle: carboxymethylcellulose (CMC)): 156 % of control
T/C (dose: 6.0 mg/kg/injection, schedule: Q## X008 (ip), vehicle: saline): 112 % of control
T/C (dose: 6.7 mg/kg/injection, schedule: Q## X004 (ip), vehicle: saline): 121 % of control
T/C (dose: 7.5 mg/kg/injection, schedule: Q01DX007 (ip), vehicle: carboxymethylcellulose (CMC)): 158 % of control
T/C (dose: 7.5 mg/kg/injection, schedule: Q01DX015 (ip), vehicle: carboxymethylcellulose (CMC)): 163 % of control
T/C (dose: 8.0 mg/kg/injection, schedule: Q01DX009 (ip), vehicle: saline): 171 % of control and 176 % of control
T/C (dose: 8.0 mg/kg/injection, schedule: Q01DX015 (ip), vehicle: saline): 150 % of control and 153 % of control
T/C (dose: 8.0 mg/kg/injection, schedule: Q## X008 (ip), vehicle: saline): 104 % of control
T/C (dose: 8.0 mg/kg/injection, schedule: Q## X016 (ip), vehicle: saline): 96 % of control
T/C (dose: 8.0 mg/kg/injection, schedule: Q## X024 (ip), vehicle: saline): 111 % of control
T/C (dose: 10.0 mg/kg/injection, schedule: Q01DX Z (ip), vehicle: carboxymethylcellulose (CMC)): 151 % of control and 169 % of control
T/C (dose: 11.25 mg/kg/injection, schedule: Q01DX007 (ip), vehicle: carboxymethylcellulose (CMC)): 150 % of control
T/C (dose: 12.0 mg/kg/injection, schedule: Q01DX009 (ip), vehicle: saline): 153 % of control and 167 % of control
T/C (dose: 12.0 mg/kg/injection, schedule: Q02DX008 (ip), vehicle: saline): 154 % of control
T/C (dose: 15.0 mg/kg/injection, schedule: Q01DX001 (ip), vehicle: saline): 123 % of control
T/C (dose: 15.0 mg/kg/injection, schedule: Q## X003 (ip), vehicle: saline): 162 % of control
T/C (dose: 15.0 mg/kg/injection, schedule: Q## X004 (ip), vehicle: saline): 150 % of control
T/C (dose: 16.0 mg/kg/injection, schedule: Q02DX008 (ip), vehicle: saline): 158 % of control
T/C (dose: 16.0 mg/kg/injection, schedule: Q## X008 (ip), vehicle: saline): 112 % of control
T/C (dose: 16.0 mg/kg/injection, schedule: Q## X016 (ip), vehicle: saline): 115 % of control
T/C (dose: 16.0 mg/kg/injection, schedule: Q## X040 (ip), vehicle: saline): 167 % of control
T/C (dose: 20.0 mg/kg/injection, schedule: Q01DX001 (ip), vehicle: carboxymethylcellulose (CMC)): 165 % of control
T/C (dose: 20.0 mg/kg/injection, schedule: Q01DX001 (sc), vehicle: saline): 109 % of control
T/C (dose: 20.0 mg/kg/injection, schedule: Q## X003 (ip), vehicle: saline): 192 % of control
T/C (dose: 20.0 mg/kg/injection, schedule: Q## X032 (ip), vehicle: saline): 124 % of control
T/C (dose: 22.5 mg/kg/injection, schedule: Q## X004 (ip), vehicle: saline): 167 % of control
T/C (dose: 24.0 mg/kg/injection, schedule: Q01DX001 (ip), vehicle: saline): 154 % of control
T/C (dose: 26.0 mg/kg/injection, schedule: Q01DX001 (ip), vehicle: carboxymethylcellulose (CMC)): 151 % of control
T/C (dose: 27.0 mg/kg/injection, schedule: Q01DX001 (oral), vehicle: saline): 116 % of control
T/C (dose: 30.0 mg/kg/injection, schedule: Q01DX001 (ip), vehicle: carboxymethylcellulose (CMC)): 157 % of control
T/C (dose: 30.0 mg/kg/injection, schedule: Q01DX001 (ip), vehicle: saline): 150 % of control and 162 % of control
T/C (dose: 30.0 mg/kg/injection, schedule: Q01DX001 (sc), vehicle: saline): 121 % of control
T/C (dose: 30.0 mg/kg/injection, schedule: Q01DX Z (ip), vehicle: carboxymethylcellulose (CMC)): 95 % of control
T/C (dose: 30.0 mg/kg/injection, schedule: Q## X003 (ip), vehicle: saline): 182 % of control
T/C (dose: 32.0 mg/kg/injection, schedule: Q02DX008 (ip), vehicle: saline): 111 % of control
T/C (dose: 32.0 mg/kg/injection, schedule: Q## X008 (ip), vehicle: saline): 185 % of control
T/C (dose: 32.0 mg/kg/injection, schedule: Q## X016 (ip), vehicle: saline): 151 % of control
T/C (dose: 32.0 mg/kg/injection, schedule: Q## X032 (ip), vehicle: saline): 168 % of control and 169 % of control
T/C (dose: 36.0 mg/kg/injection, schedule: Q01DX009 (oral), vehicle: saline): 106 % of control
T/C (dose: 40.0 mg/kg/injection, schedule: Q01DX001 (oral), vehicle: saline): 118 % of control
T/C (dose: 40.0 mg/kg/injection, schedule: Q## X032 (ip), vehicle: saline): 166 % of control
T/C (dose: 45.0 mg/kg/injection, schedule: Q01DX001 (ip), vehicle: carboxymethylcellulose (CMC)): 157 % of control
T/C (dose: 48.0 mg/kg/injection, schedule: Q01DX009 (oral), vehicle: saline): 90 % of control
T/C (dose: 48.0 mg/kg/injection, schedule: Q## X008 (ip), vehicle: saline): 191 % of control
T/C (dose: 60.0 mg/kg/injection, schedule: Q01DX001 (oral), vehicle: saline): 124 % of control
T/C (dose: 64.0 mg/kg/injection, schedule: Q## X008 (ip), vehicle: saline): 204 % of control and 229 % of control
T/C (dose: 64.0 mg/kg/injection, schedule: Q## X024 (ip), vehicle: saline): 88 % of control
T/C (dose: 90.0 mg/kg/injection, schedule: Q01DX001 (oral), vehicle: saline): 124 % of control
T/C (dose: 90.0 mg/kg/injection, schedule: Q01DX001 (sc), vehicle: saline): 118 % of control
T/C (dose: 96.0 mg/kg/injection, schedule: Q## X008 (ip), vehicle: saline): 114 % of control
T/C (dose: 100.0 mg/kg/injection, schedule: Q01DX001 (ip), vehicle: saline): 117 % of control
T/C (dose: 120.0 mg/kg/injection, schedule: Q01DX001 (ip), vehicle: saline): 113 % of control and 87 % of control
T/C (dose: 180.0 mg/kg/injection, schedule: Q01DX001 (oral), vehicle: saline): 101 % of control
T/C (dose: 360.0 mg/kg/injection, schedule: Q01DX001 (oral), vehicle: saline): 92 % of control
